Among the data in patent US20170283440A1, “CARM1 INHIBITORS AND USES THEREOF” (Epizyme, Inc., priority 2014, published 2017) are IC50 values, retold here.

The IC50 is the concentration at which inhibition is half-maximal.

The experiment deals with asymmetric di-methyl PABP1 in RKO cells. The experiment in a line: RKO methylation assay (In Cell Western for asymmetric di-methyl PABP1). The experiment is classed as cell-based. The following applies: 48 hours incubation, read-out: Cellular IC50. From the text:
RKO adherent cells were purchased from ATCC (American Type Culture Collection), Manassas, Va., USA. DMEM/Glutamax medium, penicillin-streptomycin, heat inactivated fetal bovine serum, 0.05% trypsin and D-PBS were purchased from Life Technologies, Grand Island, N.Y., USA. Odyssey blocking buffer, 800CW goat anti-rabbit IgG (H+L) antibody, and Licor Odyssey infrared scanner were purchased from Licor Biosciences, Lincoln, Nebr., USA. Asymmetric di-methyl PABP1 antibody was purchased from Cell Signaling Technology, Danvers, Mass., USA. Methanol was purchased from VWR, Franklin, Mass., USA. 10% Tween 20 was purchased from KPL, Inc., Gaithersburg, Md., USA. Paraformaldehyde (PFA) was purchased from EM Sciences. DRAQ5 was purchased from Biostatus Limited, Leicestershire, UK.
RKO adherent cells were maintained in growth medium (DMEM/Glutamax medium supplemented with 10% v/v heat inactivated fetal bovine serum and 100 units/mL penicillin-streptomycin) and cultured at 37° C. under 5% CO2.
Compound (100 nL) from a 96-well source plate was added directly to 384 well cell plate. Plates were incubated at 37° C., 5% CO2 for 48 hours. After two days of incubation, plates were brought to room temperature outside of the incubator for ten minutes and blotted on paper towels to remove cell media. Cells were fixed for 20 minutes at room temperature by adding 50 ul of 8% PFA followed by aspiration of supernatant with the Biotek EL406 plate washer. Cells were then permeabilized by addition of 50 μL of ice cold 100% methanol directly to each well and incubated for 30 min at room temperature. After 30 min, plates were transferred to a Biotek EL406 plate washer and washed 2 times with 100 μL per well of wash buffer (IX PBS). Next 60 μL per well of Odyssey blocking buffer (Odyssey Buffer with 0.1% Tween 20 (v/v)) were added to each plate and incubated 1 hour at room temperature. Blocking buffer was removed and 20 μL per well of primary antibody was added (asymmetric-methyl PABP1) diluted 1:400 in Odyssey buffer with 0.1% Tween 20 (v/v)) and plates were incubated overnight (16 hours) at 4° C. Plates were washed 5 times with 100 μL per well of wash buffer. Next 20 μL per well of secondary antibody was added (1:800 800CW goat anti-rabbit IgG (H+L) antibody, 1:2000 DRAQ5 in Odyssey buffer with 0.1% Tween 20 (v/v)) and incubated for 1 hour at room temperature. The plates were washed 5 times with 100 μL per well wash buffer then 2 times with 100 μL per well of water. Plates were allowed to dry at room temperature then imaged on the Licor Odyssey machine which measures integrated intensity at 700 nm and 800 nm wavelengths. Both 700 and 800 channels were scanned.
First, the ratio for each well was determined by:
Each plate included fourteen control wells of DMSO only treatment (minimum inhibition) as well as fourteen control wells for maximum inhibition treated with 20 μM of a reference compound. The average of the ratio values for each control type was calculated and used to determine the percent […] for each test well in the plate. Reference compound was serially diluted three-fold in DMSO for a total of nine test concentrations, beginning at 20 μM.
Percent inhibition was determined and IC50 curves were generated using triplicate wells per concentration of compound.

Read-outs that look alike come from different tables or passages of the source.

For the compound `CNCC(O)COc1cccc(-c2cc(NC(=O)NC3CCOCC3)c3cnn(C(C)C)c3n2)c1` (stereo not shown) [Example 2-1], under “Homo sapiens”, the 50% inhibitory concentration (IC50) is greater than 20 µM. Take `CC(C)n1ncc2c(N3CCOCC3)cc(-c3cccc(OCC(O)CN)c3)nc21` (stereo not shown) [Example 3-1]: the half-maximal inhibitory concentration (IC50) (Homo sapiens) fell in the range of 10 to 20 µM. Still for that read-out and setting: the figure for `CNC(=O)Nc1cc(-c2cccc(OCC(O)CN)c2)nc2c1cnn2C(C)C` (stereo not shown) [Example 8-1] is greater than 20 µM; for `CNCC(O)COc1cccc(-c2cc(NCCN)c3cnn(C(C)C)c3n2)c1` (stereo not shown) [Example 9-1] it is greater than 20 µM. As to `COC(=O)Nc1cc(-c2cccc(OCC(O)CN)c2)nc2c1cnn2C(C)C` (stereo not shown) [Example 10-1], the half-maximal inhibitory concentration (IC50) (Homo sapiens) was greater than 20 µM.

Consider `CC(C)n1ncc2c(N3CCOCC3)cc(-c3cccc(OCC(O)CN)c3)nc21` (stereo not shown) [Example 11-1], for which the IC50 lay in the range of 10 to 20 µM.

For `CC(C)n1ncc2c(N3CCOCC3)cc(-c3cccc(OC[C@@H](O)CN)c3)nc21` [Example 12-1], the IC50 (Homo sapiens) was greater than 20 µM. With `CC(C)n1ncc2c(NC(=O)N(C)C)cc(-c3cccc(OCC(O)CN)c3)nc21` (stereo not shown) [Example 14-1], under “Homo sapiens”, the IC50 is greater than 20 µM. Regarding `CNCC(O)COc1cccc(-c2cc(N(C)C3CCOC3)n3ncc(C(C)C)c3n2)c1` (stereo not shown) [Example 14-6], the IC50 (Homo sapiens) was greater than 20 µM.

With `CNCC(O)COc1cccc(-c2cc(NCCCN)c3cnn(C(C)C)c3n2)c1` (stereo not shown) [Example 15-1], the 50% inhibitory concentration (IC50) (Homo sapiens) is greater than 20 µM. On the same count and under the same terms, the figure for `CC(C)n1ncc2c(NC3CC3)cc(-c3cccc(OCC(O)CN)c3)nc21` (stereo not shown) [Example 15-9] is greater than 20 µM; for `CNCC(O)COc1cccc(-c2cc(NC(=O)OC)c3cnn(C(C)C)c3n2)c1` (stereo not shown) [Example 16-1] it is 10 to 20 µM. As for `COC(=O)CNc1cc(-c2cccc(OCC(O)CN)c2)nc2c1cnn2C(C)C` (stereo not shown) [Example 16-9], the IC50 (Homo sapiens) is greater than 20 µM. For the compound `CCOC(=O)Nc1cc(-c2cccc(OCC(O)CN)c2)nc2c1cnn2C(C)C` (stereo not shown) [Example 17-1], the concentration for half-maximal inhibition (IC50) (Homo sapiens) was greater than 20 µM. On the same count and under the same terms, in the case of `CNCC(O)COc1cccc(-c2cc(NC3CC3)c3cnn(C(C)C)c3n2)c1` (stereo not shown) [Example 18-9] it was greater than 20 µM; in that of `CC(C)n1ncc2c(NC3CCOCC3)cc(-c3cccc(OCC(O)CN)c3)nc21` (stereo not shown) [Example 19-1], greater than 20 µM. Same read-out and setting: in the case of `CNCC(O)COc1cccc(-c2cc(N3CCOCC3)c3cnn(C(C)C)c3n2)c1` (stereo not shown) [Example 20-1] it was greater than 20 µM; in that of `CNCC(O)COc1cccc(-c2cc(NC(=O)N(C)C)c3cnn(C(C)C)c3n2)c1` (stereo not shown) [Example 21-1], greater than 20 µM; in that of `CNCC(O)COc1cccc(-c2cc(NCCCCN)c3cnn(C(C)C)c3n2)c1` (stereo not shown) [Example 22-1], greater than 20 µM. As for `CNCC(O)COc1cccc(-c2cc(NC)c3cnn(C(C)C)c3n2)c1` (stereo not shown) [Example 22-9], where the note is “Homo sapiens”, the IC50 was greater than 20 µM.

With `CNCC(O)COc1cccc(-c2cc(NCC(=O)OC)c3cnn(C(C)C)c3n2)c1` (stereo not shown) [Example 23-1], under “Homo sapiens”, the half-inhibitory concentration (IC50) is greater than 20 µM.

`CNCC(O)COc1cccc(-c2cc(Nc3ccccn3)c3cnn(C(C)C)c3n2)c1` (stereo not shown) [Example 24-1]: the IC50 (Homo sapiens) is greater than 20 µM. With `CC(C)n1ncc2c(NCc3cccnc3)cc(-c3cccc(OCC(O)CN)c3)nc21` (stereo not shown) [Example 25-1], the IC50 (Homo sapiens) was greater than 20 µM. `CC(C)n1ncc2c(NCc3ccncc3)cc(-c3cccc(OCC(O)CN)c3)nc21` (stereo not shown) [Example 26-1]: the IC50 (Homo sapiens) is greater than 20 µM. With `CC(C)n1ncc2c(N(C)C3CCOCC3)cc(-c3cccc(OCC(O)CN)c3)nc21` (stereo not shown) [Example 28-1], the half-inhibitory concentration (IC50) (Homo sapiens) fell in the range of 10 to 20 µM. On the same count and under the same terms, in the case of `CNCC(O)COc1cccc(-c2cc(NC3CCOCC3)c3cnn(C(C)C)c3n2)c1` (stereo not shown) [Example 29-1] it was 10 to 20 µM.

As to `CC(C)n1ncc2c(NCC3CCOCC3)cc(-c3cccc(OCC(O)CN)c3)nc21` (stereo not shown) [Example 30-1], the IC50 (Homo sapiens) is greater than 20 µM. `CNCC(O)COc1cccc(-c2cc(NCCCCCN)c3cnn(C(C)C)c3n2)c1` (stereo not shown) [Example 32-1]: for the setting “Homo sapiens”, the concentration for half-maximal inhibition (IC50) is greater than 20 µM. In the case of `CNCC(O)COc1cccc(-c2cc(N(C)c3ccccn3)c3cnn(C(C)C)c3n2)c1` (stereo not shown) [Example 33-1], the half-inhibitory concentration (IC50) (Homo sapiens) was 10 to 20 µM. On to `CNCC(O)COc1cccc(-c2cc(NCc3ccccn3)c3cnn(C(C)C)c3n2)c1` (stereo not shown) [Example 34-1], for which the half-maximal inhibitory concentration (IC50) (Homo sapiens) was 10 to 20 µM.

`CC(C)n1ncc2c(NCc3cccc(O)c3)cc(-c3cccc(OCC(O)CN)c3)nc21` (stereo not shown) [Example 35-1]: under “Homo sapiens”, the IC50 is greater than 20 µM.

On to `Cc1c(CNc2cc(-c3cccc(OCC(O)CN)c3)nc3c2cnn3C(C)C)cnn1C` (stereo not shown) [Example 37-1], for which, for the setting “Homo sapiens”, the half-maximal inhibitory concentration (IC50) was greater than 20 µM.

Turning to `CC(C)n1ncc2c(N[C@H]3CO[C@@H]4OCC[C@@H]43)cc(-c3cccc(OCC(O)CN)c3)nc21` (stereo partly shown) [Example 38-1], the concentration for half-maximal inhibition (IC50) (Homo sapiens) is greater than 20 µM. The same measure, in the same setting: the figure for `CNCC(O)COc1cccc(-c2cc(N(C)C3CCOCC3)c3cnn(C(C)C)c3n2)c1` (stereo not shown) [Example 40-1] is 5 to 10 µM; for `CNCC(O)COc1cccc(-c2cc(NCC3CCOCC3)c3cnn(C(C)C)c3n2)c1` (stereo not shown) [Example 41-1] it is greater than 20 µM; for `CC(C)n1ncc2c(N(C)CC3CCOCC3)cc(-c3cccc(OCC(O)CN)c3)nc21` (stereo not shown) [Example 42-1] it is greater than 20 µM. Take `CNCC(O)COc1cccc(-c2cc(NCCCCCCN)c3cnn(C(C)C)c3n2)c1` (stereo not shown) [Example 43-1]: the half-maximal inhibitory concentration (IC50) (Homo sapiens) was greater than 20 µM. As for `CNCC(O)COc1cccc(-c2cc(NCc3cnn(C)c3C)c3cnn(C(C)C)c3n2)c1` (stereo not shown) [Example 46-1], the IC50 (Homo sapiens) fell in the range of 10 to 20 µM. Turning to `CNCC(O)COc1cccc(-c2cc(N[C@H]3CO[C@@H]4OCC[C@@H]43)c3cnn(C(C)C)c3n2)c1` (stereo partly shown) [Example 47-1], the half-maximal inhibitory concentration (IC50) (Homo sapiens) was greater than 20 µM. Still for that read-out and setting: the figure for `CNCC(O)COc1cccc(-c2cc(N(C)CC3CCOCC3)c3cnn(C(C)C)c3n2)c1` (stereo not shown) [Example 48-1] is 10 to 20 µM. Take `CC(C)n1ncc2c(NC(=O)NC3CCOCC3)cc(-c3cccc(OCC(O)CN)c3)nc21` (stereo not shown) [Example 49-1]: where the note is “Homo sapiens”, the IC50 is greater than 20 µM. On the same count and under the same terms, the figure for `CC(C)n1ncc2c(NCc3cnc4ccccn34)cc(-c3cccc(OCC(O)CN)c3)nc21` (stereo not shown) [Example 50-1] is greater than 20 µM. On the same count and under the same terms, in the case of `CC(C)n1ncc2c(NC(=O)OCc3ccccc3)cc(-c3cccc(OCC(O)CN)c3)nc21` (stereo not shown) [Example 51-1] it was greater than 20 µM; in that of `CNCC(O)COc1cccc(-c2cc(N3CCC(C(=O)OC)CC3)c3cnn(C(C)C)c3n2)c1` (stereo not shown) [Example 52-1], greater than 20 µM. The same measure, in the same setting: the figure for `CNCC(O)COc1cccc(-c2cc(NCc3cnc4ccccn34)c3cnn(C(C)C)c3n2)c1` (stereo not shown) [Example 53-1] is greater than 20 µM; for `CNCC(O)COc1cccc(-c2cc(NC(=O)OCc3ccccc3)c3cnn(C(C)C)c3n2)c1` (stereo not shown) [Example 54-1] it is greater than 20 µM; for `COc1nc(C)cc(C)c1CNc1cc(-c2cccc(OCC(O)CN)c2)nc2c1cnn2C(C)C` (stereo not shown) [Example 55-1] it is greater than 20 µM.

For `CNCC(O)COc1cccc(-c2cc(NCCNC(=O)c3cccnc3)c3cnn(C(C)C)c3n2)c1` (stereo not shown) [Example 56-1], the half-maximal inhibitory concentration (IC50) (Homo sapiens) is greater than 20 µM.

Regarding `CNCC(O)COc1cccc(-c2cc(NCCNC(=O)c3ccn(C)n3)c3cnn(C(C)C)c3n2)c1` (stereo not shown) [Example 58-1], the half-inhibitory concentration (IC50) (Homo sapiens) was greater than 20 µM. Take `CNCC(O)COc1cccc(-c2cc(NCCCNC(=O)c3cccnc3)c3cnn(C(C)C)c3n2)c1` (stereo not shown) [Example 59-1]: where the note is “Homo sapiens”, the IC50 is greater than 20 µM. In the case of `CNCC(O)COc1cccc(-c2cc(NCCCNC(=O)c3ccn(C)n3)c3cnn(C(C)C)c3n2)c1` (stereo not shown) [Example 60-1], the IC50 (Homo sapiens) was greater than 20 µM.

`CNCC(O)COc1cccc(-c2cc(NCCCCNC(=O)c3cccnc3)c3cnn(C(C)C)c3n2)c1` (stereo not shown) [Example 61-1]: the IC50 (Homo sapiens) is greater than 20 µM.

Turning to `CNCC(O)COc1cccc(-c2cc(NCCCCNC(=O)c3ccn(C)n3)c3cnn(C(C)C)c3n2)c1` (stereo not shown) [Example 62-1], the IC50 (Homo sapiens) was greater than 20 µM.

Consider `CNCC(O)COc1cccc(-c2cc(NCCCCCNC(=O)c3cccnc3)c3cnn(C(C)C)c3n2)c1` (stereo not shown) [Example 63-1], for which the IC50 (Homo sapiens) is greater than 20 µM. Same read-out and setting: the figure for `CNCC(O)COc1cccc(-c2cc(NCCCCCCNC(=O)c3cccnc3)c3cnn(C(C)C)c3n2)c1` (stereo not shown) [Example 65-1] is 10 to 20 µM.
